Laboratory results: ChEMBL document CHEMBL1138016, “Azaadamantane benzamide 5-HT4 agonists: gastrointestinal prokinetic SC-54750” (Bioorg Med Chem Lett, 2004)

Tests used:
[1] = molecular target: T1, Serotonin 3 (5-HT3) receptor (Rattus norvegicus, UniProt P35563+Q9JJ16); test: Binding affinity towards 5-hydroxytryptamine 3 receptor using [3H]GR-65630 as the radioligand in male rat cortical tissue; assay type: protein-complex assay
T1 sequence (P35563 whole entry): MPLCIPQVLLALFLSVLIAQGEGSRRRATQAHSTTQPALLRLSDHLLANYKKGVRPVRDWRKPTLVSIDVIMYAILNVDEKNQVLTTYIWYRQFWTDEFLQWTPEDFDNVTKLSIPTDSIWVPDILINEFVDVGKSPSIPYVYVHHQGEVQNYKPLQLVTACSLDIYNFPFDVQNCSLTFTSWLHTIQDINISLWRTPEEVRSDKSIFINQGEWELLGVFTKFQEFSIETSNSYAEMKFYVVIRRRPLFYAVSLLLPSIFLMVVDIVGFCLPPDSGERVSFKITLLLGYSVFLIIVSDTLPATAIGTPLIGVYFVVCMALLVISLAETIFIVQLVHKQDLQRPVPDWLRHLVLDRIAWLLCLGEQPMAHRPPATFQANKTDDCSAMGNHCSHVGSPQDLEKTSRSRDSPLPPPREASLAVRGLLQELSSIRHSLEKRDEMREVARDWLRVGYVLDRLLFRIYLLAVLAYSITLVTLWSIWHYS
T1 sequence (Q9JJ16 whole entry): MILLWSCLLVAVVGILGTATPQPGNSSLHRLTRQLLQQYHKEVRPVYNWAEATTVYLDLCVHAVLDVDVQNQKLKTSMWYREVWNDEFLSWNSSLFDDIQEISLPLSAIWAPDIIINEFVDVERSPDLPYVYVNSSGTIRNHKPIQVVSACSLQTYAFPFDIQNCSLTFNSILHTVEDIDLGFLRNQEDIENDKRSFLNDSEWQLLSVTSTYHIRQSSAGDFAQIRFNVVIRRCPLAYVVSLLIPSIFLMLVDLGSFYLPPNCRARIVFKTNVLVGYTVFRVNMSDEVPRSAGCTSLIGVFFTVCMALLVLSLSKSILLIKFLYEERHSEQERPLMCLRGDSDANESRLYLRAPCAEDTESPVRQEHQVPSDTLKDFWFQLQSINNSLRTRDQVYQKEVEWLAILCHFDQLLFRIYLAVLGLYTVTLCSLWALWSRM

[2] = molecular target: T2, Adrenergic receptor alpha-1 (Homo sapiens, UniProt P35348+P25100+P35368); test: Concentration required for inhibition of alpha-1 adrenergic receptor using [3H]prazosin as the radioligand; assay type: protein assay
T2 sequence (P35348 whole entry): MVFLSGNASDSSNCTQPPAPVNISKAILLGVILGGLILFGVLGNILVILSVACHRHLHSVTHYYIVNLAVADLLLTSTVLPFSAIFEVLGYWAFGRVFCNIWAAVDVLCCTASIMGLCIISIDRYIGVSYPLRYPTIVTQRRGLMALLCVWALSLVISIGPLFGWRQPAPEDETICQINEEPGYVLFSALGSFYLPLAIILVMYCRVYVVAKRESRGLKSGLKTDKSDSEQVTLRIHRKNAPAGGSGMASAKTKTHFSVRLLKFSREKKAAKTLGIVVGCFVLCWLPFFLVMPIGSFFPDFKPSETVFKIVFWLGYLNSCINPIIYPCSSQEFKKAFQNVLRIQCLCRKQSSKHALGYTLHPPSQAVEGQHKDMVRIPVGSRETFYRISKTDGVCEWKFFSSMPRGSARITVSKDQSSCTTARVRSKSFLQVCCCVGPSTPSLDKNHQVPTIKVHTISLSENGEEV
T2 sequence (P25100 whole entry): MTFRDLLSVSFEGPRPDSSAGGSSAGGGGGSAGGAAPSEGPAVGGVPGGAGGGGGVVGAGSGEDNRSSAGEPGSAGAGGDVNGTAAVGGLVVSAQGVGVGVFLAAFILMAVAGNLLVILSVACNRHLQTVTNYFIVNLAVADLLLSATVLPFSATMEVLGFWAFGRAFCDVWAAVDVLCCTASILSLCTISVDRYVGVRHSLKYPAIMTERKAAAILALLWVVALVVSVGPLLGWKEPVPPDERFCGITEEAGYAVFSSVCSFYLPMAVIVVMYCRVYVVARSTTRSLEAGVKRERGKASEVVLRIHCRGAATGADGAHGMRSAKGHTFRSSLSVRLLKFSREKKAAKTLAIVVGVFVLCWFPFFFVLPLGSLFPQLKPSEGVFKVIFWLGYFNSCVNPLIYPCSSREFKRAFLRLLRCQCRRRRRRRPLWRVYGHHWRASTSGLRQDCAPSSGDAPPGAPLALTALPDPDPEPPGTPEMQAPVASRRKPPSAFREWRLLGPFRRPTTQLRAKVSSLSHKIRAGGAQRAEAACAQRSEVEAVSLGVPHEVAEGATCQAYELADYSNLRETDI
T2 sequence (P35368 whole entry): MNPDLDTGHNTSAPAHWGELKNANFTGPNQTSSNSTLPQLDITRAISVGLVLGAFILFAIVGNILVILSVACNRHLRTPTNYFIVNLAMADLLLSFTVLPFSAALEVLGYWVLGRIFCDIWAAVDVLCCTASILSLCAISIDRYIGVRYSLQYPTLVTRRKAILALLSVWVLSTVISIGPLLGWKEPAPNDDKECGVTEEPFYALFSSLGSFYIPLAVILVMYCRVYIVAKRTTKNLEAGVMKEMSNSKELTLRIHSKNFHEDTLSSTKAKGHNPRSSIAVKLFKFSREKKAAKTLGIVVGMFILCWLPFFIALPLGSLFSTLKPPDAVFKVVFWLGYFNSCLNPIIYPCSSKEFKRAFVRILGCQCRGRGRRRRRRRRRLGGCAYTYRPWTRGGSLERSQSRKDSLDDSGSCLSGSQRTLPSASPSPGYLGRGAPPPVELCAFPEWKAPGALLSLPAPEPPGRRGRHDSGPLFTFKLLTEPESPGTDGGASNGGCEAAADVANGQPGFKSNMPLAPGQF

[3] = molecular target: Adrenergic receptor beta (Homo sapiens, UniProt P08588+P07550+P13945); test: Concentration required for inhibition of beta adrenergic receptor; assay type: protein assay
[4] = Concentration required for inhibition of 5-hydroxytryptamine 3 receptor using [3H]GR-65630 as the radioligand
[5] = molecular target: Serotonin 2 (5-HT2) receptor (Homo sapiens, UniProt P41595+P28223+P28335); assay type: protein assay

| SMILES | Ki [1] [nM] | IC50 [2] [nM] | IC50 [3] [nM] | IC50 [4] [nM] | IC50 [5] [nM] |
| --- | --- | --- | --- | --- | --- |
| COc1cc(N)c(Cl)cc1C(=O)NC1C2CC3CC1CN(C3)C2 (stereo in doubt; 9a) | 336 | > 10000 | > 10000 | 672 | 1800 |
| COc1cc(N)c(Cl)cc1C(=O)NC1C2CC3CC1CN(C3)C2 (stereo in doubt; 9b) | 9 | > 10000 | > 10000 | 18 | > 10000 |
| COc1cc(N)c(Cl)cc1C(=O)NCC1C2CC3CC1CN(C3)C2 (stereo in doubt; 9c) | 25.4 | > 10000 | > 10000 | 3.5 | > 10000 |
